Data from US8541033B2, “Production of human antibodies using NOD/SCID/γcnull mice” (Central Institute for Experimental Animals, priority 2000, dated 2013).

Key:
ED-40515(−) = assay: Effect of CXCR4 antagonist on in vivo growth of ED-40515(−) tumor in NOG mice; details: 7.5×10^7 cells inoculated, KRH-1636 0.14 mg/mouse intraperitoneally every day, 15 days
Method: (§1) Using 3 samples of HTLV-1 leukemia derived cell lines [L=Leukemic cell lines: ED-40515(−), MT-1 and TL-Oml], 6 samples of HTLV-1 infected cell lines [IT=infected transformed cell lines: SLB-1, M8116, HUT-102, MT-2, MT-4 and TY9-31MT], 10^7-8 cells/0.5 mL were transplanted to NOG mice and NOD/Shi-scid mice subcutaneously at a left posterior auricle thereof, and to some of them subcutaneously at a gluteal region thereof. Then, the tumor size in the mice, tissue image, and the mice with, and those without, leukemia were chronologically compared for examination, and the relations between these and transcription factors such as NFkB or fluctuation of Tax protein were also analyzed.
(§2) Assuming that effective tumor formation by 10^7 of ED-40515(−) in NOG mice was attributable to active neogenesis of tumoral vessels via CXCR4 of tumor cells, it has been expected that tumor formation would be inhibited as long as there was continuous administration of KRH-1636, a competitive agent of SDF-1 which was a ligand thereof in endothelial cells. However, in the case of ED-40515(−) and SLB-1 (histologically angiotropic) accompanied by bleeding, the mice formed tumors with sizes of 25×18×12 mm and 20×10×18 mm equivalent to those of non-treated group, even though KRH-1636 was intraperitoneally administered every day.

SLB-1 = assay: Effect of CXCR4 antagonist on in vivo growth of SLB-1 tumor in NOG mice; details: 7.5×10^7 cells inoculated, KRH-1636 0.14 mg/mouse intraperitoneally every day, 15 days
Method: as §1, §2

C[C@H](NC(=O)[C@H](CCCN=C(N)N)NC(=O)c1ccc(CNCc2ccccn2)cc1)c1cccc2ccccc12 [KRH-1636]
Remarks (tumor) (ED-40515(−)): progressive large tumor
Remarks (tumor) (SLB-1): progressive large tumor
